# System: U87 tumor
# Assay: PET imaging and tissue biodistribution in U87 tumor-bearing mice
# Format: in vivo, mouse
# Set-up: Biodistribution: Saliv. Gland: unit not given here
# Procedure: Cell uptake assays, flow cytometry, and IHC were performed as described previously. Banerjee et al., 2019; Nimmagadda et al., 2018. PET imaging and biodistribution Sequential PET imaging and biodistribution studies were conducted to quantify and validate PET imaging data. Briefly, tumor-bearing mice were administrated approximately 7.4 MBq of radiotracer in 150 μL saline via tail-vein injection. They were randomized into the indicated groups of 3-4 mice before radiotracer injection.
# In Experiment 1, bilateral xenografts of U87 (right flank) and PSMA+ PC3 PIP (left flank) tumors were established in male NSG mice (n=3), which underwent imaging followed by biodistribution over 24 h. […] A biodistribution study was further conducted with U87 tumors at 2 h post-injection (n=3) to compare the tissue distribution properties of ^64Cu-FP-L1 and ^64Cu-FAPI-04.
# [1] = untitled table, radiolabel and time not given
# [2] = untitled table, radiolabel and time not given, in %ID/g
# [3] = 2 h + 10 nmol Sri-06-98, dose 200 μCi, n=3, in %ID/g
# [4] = 2 h, dose 200 μCi, n=3, in %ID/g
# [5] = 4 h, dose 200 μCi, n=3, in %ID/g
# [6] = head-to-head, 1 h, dose 20 μCi, n=5/group (FAPI-04 n = 3)
compound,measurement,setting,value
N#C[C@@H]1CCCN1C(=O)CNC(=O)c1ccnc2ccc(OCCCNC(=O)C(CCNC(=O)c3ccc(F)nc3)NC(=O)CN3CCN(CC(=O)O)CCN(CC(=O)O)CCN(CC(=O)O)CC3)cc12 (stereo partly drawn) [SRI-08-15],Biodistribution: Saliv. Gland,[1],8.95 ± 0.98
same,Biodistribution: Bladder,[2],1.67 ± 0.32
same,Biodistribution: Blood,[2],3.92 ± 0.39
same,Biodistribution: Bone,[2],5.97 ± 1.02
same,Biodistribution: Fat,[2],0.92 ± 0.21
same,Biodistribution: Heart,[2],1.97 ± 0.34
same,Biodistribution: Kidney,[2],2.65 ± 0.27
same,Biodistribution: Lacrim Gland,[2],8.01 ± 1.01
same,Biodistribution: Liver,[2],2.73 ± 0.64
same,Biodistribution: Lung,[2],2.90 ± 0.24
same,Biodistribution: Muscle,[2],3.03 ± 0.63
same,Biodistribution: Pancreas,[2],7.33 ± 1.73
same,Biodistribution: Sm Intest,[2],3.85 ± 0.77
same,Biodistribution: Spleen,[2],1.59 ± 0.57
same,Biodistribution: Stomach,[2],1.42 ± 0.56
same,Biodistribution: U87,[2],20.41 ± 3.28
"N#C[C@@H]1CCCN1C(=O)CNC(=O)c1ccnc2ccc(OCCCNC(=O)CCc3cn(CCCC[C@H](NC(=O)CN4CCN(CC(=O)O)CCN(CC(=O)O)CC4)C(=O)NCCCOc4ccc5nccc(C(=O)NCC(=O)N6CCC[C@H]6C#N)c5c4)nn3)cc12 [^64Cu-Sri-06-98, metal not drawn]",Biodistribution: Bladder,[3],5.61 ± 7.96
same,Biodistribution: Blood,[3],0.27 ± 0.08
same,Biodistribution: Bone,[3],0.59 ± 0.65
same,Biodistribution: Fat,[3],0.07 ± 0.02
same,Biodistribution: Heart,[3],0.17 ± 0.01
same,Biodistribution: Kidney,[3],1.57 ± 0.00
same,Biodistribution: Lacrimal gland,[3],0.16 ± 0.02
same,Biodistribution: Liver,[3],0.68 ± 0.16
same,Biodistribution: Lung,[3],0.49 ± 0.01
same,Biodistribution: Muscle,[3],0.09 ± 0.02
same,Biodistribution: Pancreas,[3],0.21 ± 0.04
same,Biodistribution: Salivary Glands,[3],0.34 ± 0.02
same,Biodistribution: Small Intestine,[3],0.54 ± 0.08
same,Biodistribution: Spleen,[3],0.25 ± 0.01
same,Biodistribution: Stomach,[3],0.31 ± 0.02
same,Biodistribution: U87,[3],2.70 ± 1.00
same,Biodistribution: Bladder,[4],1.63 ± 0.23
same,Biodistribution: Blood,[4],3.49 ± 0.18
same,Biodistribution: Bone,[4],2.91 ± 0.36
same,Biodistribution: Fat,[4],0.47 ± 0.02
same,Biodistribution: Heart,[4],3.70 ± 0.22
same,Biodistribution: Kidney,[4],2.00 ± 0.52
same,Biodistribution: Lacrimal gland,[4],5.07 ± 2.20
same,Biodistribution: Liver,[4],2.80 ± 0.31
same,Biodistribution: Lung,[4],2.62 ± 0.11
same,Biodistribution: Muscle,[4],2.46 ± 0.20
same,Biodistribution: Pancreas,[4],4.59 ± 2.38
same,Biodistribution: Salivary Glands,[4],8.88 ± 1.37
same,Biodistribution: Small Intestine,[4],2.97 ± 0.33
same,Biodistribution: Spleen,[4],1.51 ± 0.14
same,Biodistribution: Stomach,[4],2.09 ± 1.00
same,Biodistribution: U87,[4],7.64 ± 2.12
same,Biodistribution: Bladder,[5],5.56 ± 1.53
same,Biodistribution: Blood,[5],2.54 ± 0.37
same,Biodistribution: Bone,[5],2.69 ± 0.14
same,Biodistribution: Fat,[5],0.50 ± 0.12
same,Biodistribution: Heart,[5],2.40 ± 0.12
same,Biodistribution: Kidney,[5],1.67 ± 0.03
same,Biodistribution: Lacrimal gland,[5],4.54 ± 0.44
same,Biodistribution: Liver,[5],2.68 ± 0.08
same,Biodistribution: Lung,[5],2.04 ± 0.10
same,Biodistribution: Muscle,[5],2.13 ± 0.14
same,Biodistribution: Pancreas,[5],4.54 ± 0.62
same,Biodistribution: Salivary Glands,[5],5.92 ± 0.57
same,Biodistribution: Small Intestine,[5],2.69 ± 0.42
same,Biodistribution: Spleen,[5],1.14 ± 0.16
same,Biodistribution: Stomach,[5],1.60 ± 0.36
same,Biodistribution: U87,[5],11.15 ± 1.49
"N#C[C@@H]1CCCN1C(=O)CNC(=O)c1ccnc2ccc(OCCCNC(=O)CCc3cn(CCCC[C@H](NC(=O)CN4CCN(CC(=O)O)CCN(CC(=O)O)CC4)C(=O)NCCCOc4ccc5nccc(C(=O)NCC(=O)N6CCC[C@H]6C#N)c5c4)nn3)cc12 [^64Cu-FAPI-74, metal not drawn, reference compound]",Biodistribution: Bladder,[6],3.51 ± 0.30 % ID/g
same,Biodistribution: Blood,[6],2.48 ± 0.87 % ID/g
same,Biodistribution: Bone,[6],7.94 ± 0.78 % ID/g
same,Biodistribution: Fat,[6],0.48 ± 0.43 % ID/g
same,Biodistribution: Heart,[6],1.16 ± 0.28 % ID/g
same,Biodistribution: Kidney,[6],3.83 ± 2.31 % ID/g
same,Biodistribution: Lacrimal gland,[6],5.17 ± 1.51 % ID/g
same,Biodistribution: Liver,[6],1.69 ± 0.83 % ID/g
same,Biodistribution: Lung,[6],2.48 ± 0.64 % ID/g
same,Biodistribution: Muscle,[6],2.05 ± 0.84 % ID/g
same,Biodistribution: Pancreas,[6],2.09 ± 1.12 % ID/g
same,Biodistribution: Salivary Gland,[6],4.42 ± 0.55 % ID/g
same,Biodistribution: Small Intestine,[6],3.80 ± 2.06 % ID/g
same,Biodistribution: Spleen,[6],1.23 ± 0.41 % ID/g
same,Biodistribution: Stomach,[6],1.29 ± 0.45 % ID/g
same,Biodistribution: U87,[6],11.42 ± 1.11 % ID/g
N#C[C@@H]1CCCN1C(=O)CNC(=O)c1ccnc2ccc(OCCCNC(=O)CCOCCOCCOCCNC(=O)C(CCNC(=O)c3ccc(F)nc3)NC(=O)CN3CCN(CC(=O)O)CCN(CC(=O)O)CCN(CC(=O)O)CC3)cc12 (stereo partly drawn) [SRI-08-27],Biodistribution: Saliv. Gland,[1],6.40 ± 1.30
same,Biodistribution: Bladder,[2],1.18 ± 0.13
same,Biodistribution: Blood,[2],12.65 ± 2.31
same,Biodistribution: Bone,[2],2.83 ± 0.36
same,Biodistribution: Fat,[2],0.45 ± 0.16
same,Biodistribution: Heart,[2],5.39 ± 1.11
same,Biodistribution: Kidney,[2],3.98 ± 0.66
same,Biodistribution: Lacrim Gland,[2],4.62 ± 1.02
same,Biodistribution: Liver,[2],5.15 ± 0.75
same,Biodistribution: Lung,[2],7.76 ± 1.31
same,Biodistribution: Muscle,[2],1.55 ± 0.43
same,Biodistribution: Pancreas,[2],7.20 ± 3.00
same,Biodistribution: Sm Intest,[2],6.28 ± 2.63
same,Biodistribution: Spleen,[2],2.59 ± 0.49
same,Biodistribution: Stomach,[2],1.83 ± 0.66
same,Biodistribution: U87,[2],6.56 ± 1.76
